# Reference: patent US9993001B2, “Herbicidal composition” (ISHIHARA SANGYO KAISHA, LTD., priority 2014, dated 2018)
# Assays:
# Format in all cases: in vivo
# [1] = test system: spotted knotweed (Polygonum lapathifolium L.); assay: Test Example 2: soybean field, soil treatment, metobromuron + S-metolachlor; settings: Persicaria lapathifolia, soil, read-out: Growth inhibition rate of spotted knotweed (%) Measured value
# Description: (§1) When the herbicidal activity in a case where two active ingredients are combined, is larger than the simple sum of the respective herbicidal activities of the two active ingredients (the expected activity), it is called a synergistic effect. The activity expected by the combination of two active ingredients can be calculated as follows (Colby S. R., “Weed”, vol. 15, p. 20-22, 1967). E=α+β−(α×β[…]) where α: growth inhibition rate when treated with x (g/ha) of herbicide X, • β: growth inhibition rate when treated with y (g/ha) of herbicide Y, • E: growth inhibition rate expected when treated with x (g/ha) of herbicide X and y (g/ha) of herbicide Y.
# (§2) On the 19th day after treatment, the state of growth of barnyardgrass was visually observed and evaluated in accordance with the following standards. The growth inhibition rate (%) [measured value] and the growth inhibition rate (%) [calculated value] calculated by the Colby's method, are shown in Table 2.
# (§3) Growth inhibition rate (%)=inhibition rate) (%) of 0 (equivalent to the non-treated area) to 100 (complete kill) […]
# On the 50th day after treatment, the state of growth of spotted knotweed was visually observed and evaluated in the same manner as in Test Example 1.
# [2] = test system: Oriental lady's thumb (Persicaria longiseta); assay: Test Example 7: common bean field, soil treatment, metobromuron + trifluralin; settings: soil, read-out: Growth inhibition rate of Oriental lady's thumb (%) Measured value
# Description: as §1, §2, §3
# On the 49th day after treatment, the state of growth of Oriental lady's thumb (Persicaria longiseta) which occurred naturally, was visually observed and evaluated in the same manner as in Test Example 1.
# [3] = test system: redroot pigweed (Amaranthus retroflexus L.); assay: Test Example 9: corn field, soil treatment, metobromuron + S-metolachlor; settings: soil, read-out: Growth inhibition rate of redroot pigweed (%) Measured value
# Description: as §1, §2, §3
# On the 49th day after treatment, the state of growth of redroot pigweed (Amaranthus retroflexus L.) which occurred naturally, was visually observed and evaluated in the same manner as in Test Example 1.
# [4] = test system: large crabgrass (Diqitaria sanquinalis L.); assay: Test Example 11: corn field, foliar treatment, metobromuron + nicosulfuron; settings: Digitaria sanguinalis, foliar, read-out: Growth inhibition rate of large crabgrass (%) Measured value
# Description: as §1, §2, §3
# On the 30th day after treatment, the state of growth of large crabgrass was visually observed and evaluated in the same manner as in Test Example 1.
# [5] = test system: velvetleaf (Abutilon theophrasti MEDIC.); assay: Test Example 13: pot, soil treatment, metobromuron + pyroxasulfone; settings: soil, read-out: Growth inhibition rate of velvetleaf (%) Measured value
# Description: as §1, §2
# (§4) Growth inhibition rate (%)=inhibition rate) (%) of 0 (equivalent to the non-treated area) to 100 (complete kill)
# Soil was put into a 1/300,000 ha pot, and seeds of velvetleaf (Abutilon theophrasti MEDIC.) were sown. Prior to germination of velvetleaf, predetermined amounts of SC containing metobromuron as active ingredient (same as in Test Example 1) and WG containing pyroxasulfone as active ingredient (trade name: Sakura 850 WG, manufactured by Bayer CropScience) were diluted with water corresponding to 1,000 L per hectare and applied for soil treatment.
# On the 12th day after treatment, the state of growth of velvetleaf was visually observed and evaluated in the same manner as in Test Example 1.
# [6] = test system: barnyardgrass (Echinochloa crus-galli L.); assay: Test Example 15: pot, soil treatment, metobromuron + chlorpropham; settings: soil, read-out: Growth inhibition rate of barnyardgrass (%) Measured value
# Description: as §1, §2, §4
# Soil was put into a 1/300,000 ha pot, and seeds of barnyardgrass (Echinochloa crus-galli L.) were sown. […]
# On the 21st day after treatment, the state of growth of barnyardgrass was visually observed and evaluated in the same manner as in Test Example 1.
# [7] = test system: annual bluegrass (Poa annua L.); assay: Test Example 19: pot, soil treatment, metobromuron + chlorpropham; settings: soil, read-out: Growth inhibition rate of annual bluegrass (%) Measured value
# [8] = test system: common lambsquarters (Chenopodium album L.); assay: Test Example 20: pot, soil treatment, metobromuron + chlorpropham; settings: soil, read-out: Growth inhibition rate of common lambsquarters (%) Measured value
# Description: as §1, §2, §4
# (§5) Soil was put into a 1/300,000 ha pot, and seeds of barnyardgrass (Echinochloa crus-galli L.) were sown. On the day after seeding, predetermined amounts of SC containing metobromuron as active ingredient (same as in Test Example 1) and EC containing chlorpropham as active ingredient (same as in Test Example 1) were diluted with water corresponding to 1,000 L per hectare and applied for soil treatment.
# (§6) On the 26th day after treatment, the state of growth of barnyardgrass was visually observed and evaluated in the same manner as in Test Example 1.
# The test was carried out in the same manner as in Test Example 18 except that barnyardgrass (Echinochloa crus-galli L.) was changed to common lambsquarters (Chenopodium album L.), to obtain the results as shown in Table 21.
# [9] = test system: black nightshade (Solanum nigrum L.); assay: Test Example 26: pot, soil treatment, metobromuron + prosulfocarb; settings: soil, read-out: Growth inhibition rate of black nightshade (%) Measured value
# Description: as §1, §2, §4
# Soil was put into a 1/300,000 ha pot, and seeds of black nightshade (Solanum nigrum L.) were sown. On the day after seeding, predetermined amounts of SC containing metobromuron as active ingredient (same as in Test Example 1) and EC containing prosulfocarb as active ingredient (trade name: BOXER NYUZAI, manufactured by Syngenta) were diluted with water corresponding to 1,000 L per hectare and applied for soil treatment.
# On the 21st day after treatment, the state of growth of black nightshade was visually observed and evaluated in the same manner as in Test Example 1.
# [10] = test system: barnyardgrass (Echinochloa crus-galli L.); assay: Test Example 32: pot, soil treatment, metobromuron + chlorpropham; settings: soil, read-out: Growth inhibition rate of barnyardgrass (%) Measured value
# Description: as §1, §2, §4, §5, §6
compound,measurement,setting,value
"CON(C)C(=O)Nc1ccc(Br)cc1 [Metobromuron, 3-(4-bromophenyl)-1-methoxy-1-methylurea]",inhibition at 1000 g/ha,[1],58%
same,inhibition at 1500 g/ha,[2],10%
same,inhibition at 1000 g/ha,[3],25%
same,inhibition at 1000 g/ha,[4],25%
same,inhibition at 375 g/ha,[5],28%
same,inhibition at 750 g/ha,[5],55%
same,inhibition at 1500 g/ha,[5],74%
same,inhibition at 1500 g/ha,[6],72%
same,inhibition at 375 g/ha,[7],50%
same,inhibition at 188 g/ha,[8],50%
same,inhibition at 250 g/ha,[9],25%
same,inhibition at 375 g/ha,[9],50%
same,inhibition at 562.5 g/ha,[9],68%
same,inhibition at 375 g/ha,[10],40%
